From patent EP3928779A1 (Chugai Seiyaku Kabushiki Kaisha, priority 2014, dated 2016) come the findings set out here.

For this test, the system named is rat small-intestinal brush border membrane vesicles. Put plainly: Inhibitory effect on 33PO4 uptake into rat small-intestinal brush border membrane vesicles (rapid filtration method). In kind it is biochemical. The settings on record: 33PO4 uptake into rat small-intestinal BBMVs; test compound 1 µM; reacted for 60 seconds. The procedure:
Brush border membrane vesicles (BBMVs) were prepared using the upper region of the small intestine of each Wistar female rat (4-5 weeks old). […] The ^33PO4 transport activity of the small-intestinal BBMVs was determined by the rapid filtration method. […] Then, ice-cold buffer C (110 mM NaCl, 1 mM KH2PO4, and 10 mM HEPES (pH 7.5)) was added to each reaction mixture, which was immediately suctionfiltered through a Millipore filter. The filter was washed with buffer C, and each sample was then dissolved in a liquid scintillator. The amount of ^33PO4 uptake into BBMVs was measured using a liquid scintillation counter. […]

For “1-[(2,3-Difluorophenyl)methyl]-4a-ethyl-4-hydroxy-N-[5-methyl-2-(trifluoromethyl)furan-3-yl]-2-oxo-5,6,7,8-tetrahydropyrido[1,2-b]pyridazine-3-carboxamide [Example 19]”, the “Rate of uptake inhibition (%) (1 µM)” value amounted to 41%.

Take “1-[(3-Fluorophenyl)methyl]-4-hydroxy-4a-methyl-N-[5-methyl-2-(trifluoromethyl)furan-3-yl]-2-oxo-5,6,7,8-tetrahydropyrido[1,2-b]pyridazine-3-carboxamide [Example 18]”: the “Rate of uptake inhibition (%) (1 µM)” value was found to be 12%.

Take `Cc1cc(NC(=O)C2=C(O)[C@@H]3CCCN3N(Cc3cccc(F)c3)C2=O)c(C(F)(F)F)o1` [Example 1, (4aS)-1-[(3-Fluorophenyl)methyl]-4-hydroxy-N-[5-methyl-2-(trifluoromethyl)furan-3-yl]-2-oxo-4a,5,6,7-tetrahydropyrrolo[1,2-b]pyridazine-3-carboxamide]: the “Rate of uptake inhibition (%) (1 µM)” value was found to be 28%.

Consider `Cc1cc(NC(=O)C2=C(O)[C@H]3CCCN3N(Cc3cccc(F)c3)C2=O)c(C(F)(F)F)o1` [Example 2, (4aR)-1-[(3-Fluorophenyl)methyl]-4-hydroxy-N-[5-methyl-2-(trifluoromethyl)furan-3-yl]-2-oxo-4a,5,6,7-tetrahydropyrrolo[1,2-b]pyridazine-3-carboxamide], for which the “Rate of uptake inhibition (%) (1 µM)” value stood at 19%.

Regarding `Cc1cc(NC(=O)C2=C(O)[C@@H]3CC(C)(C)CN3N(Cc3cccc(F)c3)C2=O)c(C(F)(F)F)o1` [Example 3], the “Rate of uptake inhibition (%) (1 µM)” value is 11%.

As to `Cc1cc(NC(=O)C2=C(O)[C@@H]3CCC(C)(C)N3N(Cc3cccc(F)c3)C2=O)c(C(F)(F)F)o1` [Example 4, (4aS)-1-[(3-Fluorophenyl)methyl]-4-hydroxy-7,7-dimethyl-N-[5-methyl-2-(trifluoromethyl)furan-3-yl]-2-oxo-5.6-dihydro-4aH-pyrrolo[1,2-b]pyridazine-3-carboxamide], the “Rate of uptake inhibition (%) (1 µM)” value stood at 32%.

In the case of `COCCN(C)CCOc1ccc(CN2C(=O)C(C(=O)Nc3ccc(C(F)(F)F)cc3-c3cc(C(F)(F)F)ncn3)=C(O)C3(CCC3)N2C)c(F)c1F` [Example 13, 6-[[2,3-Difluoro-4-[2-[2-methoxyethyl(methyl)amino]ethoxy]phenyl]methyl]-9-hydroxy-5-methyl-7-oxo-N-[4-(trifluoromethyl)-2-[6-(trifluoromethyl)pyrimidin-4-yl]phenyl]-5,6-diazaspiro[3.5]non-8-ene-8-carboxamide], the “Rate of uptake inhibition (%) (1 µM)” value is 58%.

Turning to `Cc1cc(NC(=O)C2=C(O)[C@H]3CCCCN3N(Cc3cccc(F)c3)C2=O)c(C(F)(F)F)o1` [Example 15, (4aR)-1-[(3-Fluorophenyl)methyl]-4-hydroxy-N-[5-methyl-2-(trifluoromethyl)furan-3-yl]-2-oxo-5,6,7,8-tetrahydro-4aH-pyrido[1,2-b]pyridazine-3-carboxamide], the “Rate of uptake inhibition (%) (1 µM)” value stood at 42%.

Consider `C[C@]12CCCN1N(Cc1cccc(F)c1F)C(=O)C(C(=O)Nc1ccc(C(F)(F)F)cc1-c1cc(C(F)(F)F)ncn1)=C2O` [Example 21, (4aR)-1-[(2,3-Difluorophenyl)methyl]-4-hydroxy-4a-methyl-2-oxo-N-[4-(trifluoromethyl)-2-[6-(trifluoromethyl)pyrimidin-4-yl]phenyl]-6,7-dihydro-5H-pyrrolo[1,2-b]pyridazine-3-carboxamide], for which the “Rate of uptake inhibition (%) (1 µM)” value stood at 61%.

Turning to `Cc1c(C#N)ncnc1-c1cc(C(F)(F)F)ccc1NC(=O)C1=C(O)[C@@]2(C)CCCN2N(Cc2ccc(OCCN3CCOCC3)c(F)c2F)C1=O` [Example 22, (4aR)-N-[2-(6-Cyano-5-methylpyrimidin-4-yl)-4-(trifluoromethyl)phenyl]-1-[[2,3-ditluoro-4-(2-morpholin-4-ylethoxy)phenyl]methyl]-4-hydroxy-4a-methyl-2-oxo-6,7-dihydro-5H-pyrrolo[1,2-b]pyridazine-3-carboxamide], the “Rate of uptake inhibition (%) (1 µM)” value is 50%.

In the case of `C[C@]12CCCN1N(Cc1cccc(F)c1F)C(=O)C(C(=O)Nc1ccc(C(F)(F)F)cc1-c1ncnc(C#N)c1Cl)=C2O` [Example 23], the “Rate of uptake inhibition (%) (1 µM)” value came out at 84%.

`Cc1c(C#N)ncnc1-c1cc(C(F)(F)F)ccc1NC(=O)C1=C(O)[C@@]2(C)CCCN2N(Cc2cccc(F)c2F)C1=O` [Example 24]: the “Rate of uptake inhibition (%) (1 µM)” value is listed as 76%.

Take `COc1c(C#N)ncnc1-c1cc(C(F)(F)F)ccc1NC(=O)C1=C(O)[C@@]2(C)CCCN2N(Cc2cccc(F)c2F)C1=O` [Example 25]: the “Rate of uptake inhibition (%) (1 µM)” value is reported as 82%.

In the case of `CCCCCN1C(=O)C(C(=O)Nc2ccc(C(F)(F)F)cc2-c2ccc(C(F)(F)F)nc2)=C(O)[C@@]2(C)CCCN12` [Example 26], the “Rate of uptake inhibition (%) (1 µM)” value came to 72%.

Regarding `C[C@]12CCCN1N(Cc1cccc([N+](=O)[O-])c1)C(=O)C(C(=O)Nc1ccc(Br)c(F)c1)=C2O` [Example 27], the “Rate of uptake inhibition (%) (1 µM)” value was found to be 76%.

With `C[C@]12CCCN1N(Cc1cccc(F)c1F)C(=O)C(C(=O)Nc1ccc(Br)c(F)c1)=C2O` [Example 28], the “Rate of uptake inhibition (%) (1 µM)” value came out at 72%.

In the case of `C[C@]12CCCN1N(Cc1cccc(F)c1F)C(=O)C(C(=O)Nc1cc(F)c(Br)c(F)c1)=C2O` [Example 29], the “Rate of uptake inhibition (%) (1 µM)” value is 75%.

In the case of `CC1(C)CC[C@]2(C)C(O)=C(C(=O)Nc3cc(C(F)(F)F)ccc3-c3ccc(C(F)(F)F)nc3)C(=O)N(Cc3cccc(F)c3F)N12` [Example 63], the “Rate of uptake inhibition (%) (1 µM)” value was 72%.

`C[C@]12CCCN1N(Cc1cccc(F)c1F)C(=O)C(C(=O)Nc1ccc(Br)cc1-c1cc(C(F)(F)F)ncn1)=C2O` [Example 64]: the “Rate of uptake inhibition (%) (1 µM)” value turned out to be 77%.

Turning to `COC(=O)c1cccc(-c2cc(C(F)(F)F)ccc2NC(=O)C2=C(O)[C@@]3(C)CCCN3N(Cc3cccc(F)c3F)C2=O)c1OC` [Example 65], the “Rate of uptake inhibition (%) (1 µM)” value was found to be 98%.

For the compound `CCOc1cccc(-c2cc(C(F)(F)F)ccc2NC(=O)C2=C(O)[C@@]3(C)CCCN3N(Cc3cccc(F)c3F)C2=O)c1OC` [Example 66], the “Rate of uptake inhibition (%) (1 µM)” value was determined as 96%.

Regarding `C[C@]12CCCN1N(Cc1cccc(F)c1F)C(=O)C(C(=O)Nc1ccc(C(F)(F)F)cc1-c1cnc(Cl)nc1)=C2O` [Example 67], the “Rate of uptake inhibition (%) (1 µM)” value is listed as 91%.

For `C[C@]12CCCN1N(Cc1cccc(F)c1F)C(=O)C(C(=O)Nc1ccc(C(F)(F)F)cc1-c1cnc(Cl)c(C#N)c1)=C2O` [Example 68, (4aR)-N-[2-(6-Chloro-5-cyanopyridin-3-yl)-4-(trifluoromethyl)phenyl]-1-[(2,3-difluorophenyl)methyl]-4-hydroxy-4a-methyl-2-oxo-6,7-dihydro-5H-pyrrolo[1,2-b]pyridazine-3-carboxamide], the “Rate of uptake inhibition (%) (1 µM)” value came to 84%.

Consider `Cc1c(Cl)ncnc1-c1cc(C(F)(F)F)ccc1NC(=O)C1=C(O)[C@@]2(C)CCCN2N(Cc2cccc(F)c2F)C1=O` [Example 69], for which the “Rate of uptake inhibition (%) (1 µM)” value came out at 74%.

With `C[C@]12CCCN1N(Cc1cccc(F)c1F)C(=O)C(C(=O)Nc1ccc(C(F)(F)F)cc1-c1ncnc(Cl)c1Cl)=C2O` [Example 70], the “Rate of uptake inhibition (%) (1 µM)” value was found to be 79%.

With `CN(C)S(=O)(=O)c1ccc(-c2cc(C(F)(F)F)ccc2NC(=O)C2=C(O)[C@@]3(C)CCCN3N(Cc3cccc(F)c3F)C2=O)s1` [Example 71], the “Rate of uptake inhibition (%) (1 µM)” value is on record as 97%.

`COc1ncc(-c2cc(C(F)(F)F)ccc2NC(=O)C2=C(O)[C@@]3(C)CCCN3N(Cc3cccc(F)c3F)C2=O)c(OC)n1` [Example 72]: the “Rate of uptake inhibition (%) (1 µM)” value came to 92%.

Take `C[C@]12CCCN1N(Cc1cccc(F)c1F)C(=O)C(C(=O)Nc1ccc(C(F)(F)F)cc1-c1cnc(Br)cn1)=C2O` [Example 73]: the “Rate of uptake inhibition (%) (1 µM)” value came to 74%.

For `C[C@]12CCCN1N(Cc1cccc(F)c1F)C(=O)C(C(=O)Nc1ccc(C(F)(F)F)cc1-c1cnc(Cl)cn1)=C2O` [Example 74], the “Rate of uptake inhibition (%) (1 µM)” value came to 82%.

As for `C[C@]12CCCN1N(Cc1cccc(F)c1F)C(=O)C(C(=O)Nc1ccc(Br)cc1F)=C2O` [Example 75], the “Rate of uptake inhibition (%) (1 µM)” value was 74%.

For the compound `C[C@]12CCCN1N(Cc1cccc(F)c1F)C(=O)C(C(=O)Nc1ccc(Cl)cc1F)=C2O` [Example 76], the “Rate of uptake inhibition (%) (1 µM)” value came to 77%.

Regarding `C[C@]12CCCN1N(Cc1cccc(F)c1F)C(=O)C(C(=O)Nc1ccc(Br)cc1)=C2O` [Example 77], the “Rate of uptake inhibition (%) (1 µM)” value stood at 80%.

As to `C[C@]12CCCN1N(Cc1cccc(F)c1F)C(=O)C(C(=O)Nc1ccc(Br)cn1)=C2O` [Example 78], the “Rate of uptake inhibition (%) (1 µM)” value is on record as 71%.

Consider `C[C@]12CCCN1N(Cc1cccc(F)c1F)C(=O)C(C(=O)Nc1ccc(Cl)cn1)=C2O` [Example 79], for which the “Rate of uptake inhibition (%) (1 µM)” value was found to be 71%.

In the case of `COc1cc(C)c(-c2cc(C(F)(F)F)ccc2NC(=O)C2=C(O)[C@@]3(C)CCCN3N(Cc3cccc(F)c3F)C2=O)cn1` [Example 80], the “Rate of uptake inhibition (%) (1 µM)” value was found to be 75%.

As to `COc1cncc(-c2cc(C(F)(F)F)ccc2NC(=O)C2=C(O)[C@@]3(C)CCCN3N(Cc3cccc(F)c3F)C2=O)c1` [Example 81], the “Rate of uptake inhibition (%) (1 µM)” value turned out to be 74%.

Regarding `C[C@]12CCCN1N(Cc1cccc(F)c1F)C(=O)C(C(=O)Nc1ccc(C(F)(F)F)cc1-c1cncc(C#N)c1)=C2O` [Example 82], the “Rate of uptake inhibition (%) (1 µM)” value was found to be 100%.

With `C[C@]12CCCN1N(Cc1cccc(F)c1F)C(=O)C(C(=O)Nc1ccc(C(F)(F)F)cc1-c1cnc3ccccc3c1)=C2O` [Example 83], the “Rate of uptake inhibition (%) (1 µM)” value was 90%.

For `C[C@]12CCCN1N(Cc1cccc(F)c1F)C(=O)C(C(=O)Nc1ccc(C(F)(F)F)cc1-c1cc(Cl)cnc1Cl)=C2O` [Example 84], the “Rate of uptake inhibition (%) (1 µM)” value was 91%.

In the case of `C[C@]12CCCN1N(Cc1cccc(F)c1F)C(=O)C(C(=O)Nc1ccc(C(F)(F)F)cc1-c1ccc(C(F)(F)F)nc1Br)=C2O` [Example 85], the “Rate of uptake inhibition (%) (1 µM)” value was 71%.
